This note sets out measurements from patent publication US10300074B2, “Use of inhibitor of apoptosis protein (IAP) antagonists in HIV therapy” (Sanford-Burnham Medical Research Institute, priority 2014, dated 2019).

The subject of assay [1] is Latently infected Jurkat JLat 10.6 cells. The conditions noted are these: HDAC inhibitor in combination with Compound 35, 36 hours, normalized against background of HDAC inhibitor alone.
The target in another assay is ML-IAP (Homo sapiens (Human), UniProt Q96CA5). The assay can be described thus: ML-IAP Ki. The class given is binding.
The target in a further assay is XIAP BIR3 (Homo sapiens (Human), UniProt P98170). The assay is described as follows: XIAP BIR3 Ki. In kind it is binding.
In a further assay the target is XIAP BIR1/2 (Homo sapiens (Human), UniProt P98170). The assay can be described thus: XIAP BIR1/2 Ki. The class given is binding.
Assay [2] deals with latently infected JLat 10.6 cells. The conditions noted are these: single agent, 24 hours.

Sequence of ML-IAP (Q96CA5 whole entry): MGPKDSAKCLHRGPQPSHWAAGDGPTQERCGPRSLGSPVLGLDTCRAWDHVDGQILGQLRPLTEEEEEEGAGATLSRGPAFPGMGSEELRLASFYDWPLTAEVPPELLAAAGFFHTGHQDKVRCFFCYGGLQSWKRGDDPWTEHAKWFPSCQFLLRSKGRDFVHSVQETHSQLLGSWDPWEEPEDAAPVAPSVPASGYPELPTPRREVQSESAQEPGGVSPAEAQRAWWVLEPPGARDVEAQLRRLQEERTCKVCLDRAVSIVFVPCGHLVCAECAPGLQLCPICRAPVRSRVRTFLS
Sequence of XIAP BIR3 (P98170 241-356): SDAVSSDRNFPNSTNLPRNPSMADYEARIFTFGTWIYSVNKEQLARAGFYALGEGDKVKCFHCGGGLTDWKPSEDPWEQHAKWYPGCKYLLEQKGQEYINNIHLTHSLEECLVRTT
Sequence of XIAP BIR1/2 (P98170 1-240): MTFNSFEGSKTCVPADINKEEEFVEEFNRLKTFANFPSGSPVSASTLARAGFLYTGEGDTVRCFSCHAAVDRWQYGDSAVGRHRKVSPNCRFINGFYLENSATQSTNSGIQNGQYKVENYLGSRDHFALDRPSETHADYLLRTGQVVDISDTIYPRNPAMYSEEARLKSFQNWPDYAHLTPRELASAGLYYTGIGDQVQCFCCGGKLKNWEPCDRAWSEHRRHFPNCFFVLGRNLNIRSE

Take `Nc1ccccc1NC(=O)CCCCCCC(=O)Nc1ccccc1` [BML-210, Octanediamide, N1-(2-aminophenyl)-N8-phenyl-]: in assay [1], the “Group: increase of GFP+ cells” value was “A (A 0-25%)”.

Turning to `Cc1cc(Cl)ccc1OCCCC(=O)NO` [Droxinostat], in assay [1], the “Group: increase of GFP+ cells” value is listed as “B (B 25-50%)”.

As to `O=C([O-])CCCc1ccccc1.[Na+]` [Phenylbutyrate•Na, Phenylbutyrate⋅Na], the “Group: increase of GFP+ cells” value in assay [1] is listed as “A (A 0-25%)”.

As for `O=C(CCCCCCSc1ccc2ccccc2c1)NO` [HNHA, Heptanamide, N-hydroxy-7-(2-naphthalenylthio)-], in assay [1], the “Group: increase of GFP+ cells” value was “B (B 25-50%)”.

For the compound `CN[C@@H](C)C(=O)N[C@H]1CCO[C@H]2CC(C)(C)C(C(=O)N[C@@H]3CCCc4ccccc43)N2C1=O` (stereo partly shown) [Compound 17b], the Ki at ML-IAP (Table 2-2), on XIAP BIR3 (Table 2-2) and at XIAP BIR1/2 (Table 2-2) was ≤ 25 µM each time.

As for `CN[C@@H](C)C(=O)N[C@H]1CCO[C@H]2CCC(C(=O)NC(c3ccccc3)c3ccccc3)N2C1=O` (stereo partly shown) [Compound 14], the Ki (commonly a dissociation constant, usually derived from enzyme kinetics or from competition with a known ligand) on ML-IAP (Table B-1) is ≤ 25 µM; at XIAP BIR3 (Table B-1), ≤ 25 µM; at XIAP BIR1/2 (Table B-1), > 50 µM.

As to `O=C(CCCCCCC(=O)NO)NO` [Suberoyl bis-hydroxamic acid], the “Group: increase of GFP+ cells” value in assay [1] was “B (B 25-50%)”.

Regarding `CN[C@@H](C)C(=O)N[C@H]1CCO[C@H]2CC[C@@H](C(=O)N[C@@H]3CCOc4ccccc43)N2C1=O` [Compound 32], the Ki on ML-IAP (Table B-1) was ≤ 25 µM; on XIAP BIR3 (Table B-1) it was ≤ 25 µM; at XIAP BIR1/2 (Table B-1) it was > 50 µM.

Regarding `CC(=O)Nc1ccc(C(=O)Nc2ccccc2N)cc1` [CI-994, Benzamide, 4-(acetylamino)-N-(2-aminophenyl)-], the “Group: increase of GFP+ cells” value in assay [1] is on record as “A (A 0-25%)”.

For `Cc1ccc(C(=O)c2cc(C=CC(=O)NO)n(C)c2)cc1` [MC-1293, 2-Propenamide, N-hydroxy-3-[1-methyl-4-(4-methylbenzoyl)-1H-pyrrol-2-yl]-], the “Group: increase of GFP+ cells” value in assay [1] is “B (B 25-50%)”.

For `CCCC(=O)OCc1ccc(OC(=O)/C=C(C)/C=C/C=C(C)/C=C/C2=C(C)CCCC2(C)C)cc1` [ATRA-BA Hybrid, Retinoic acid, 4-[(1-oxobutoxy)methyl]phenyl ester], the “Group: increase of GFP+ cells” value in assay [1] was “A (A 0-25%)”.

Turning to `CN[C@@H](C)C(=O)N[C@@H]1C(=O)N2C(C(=O)NC3CCCc4ccccc43)CC[C@@H]2O[C@@H]1C` (stereo partly shown) [Compound 10], the Ki on ML-IAP (Table B-1) is ≤ 25 µM; on XIAP BIR3 (Table B-1) it was ≤ 25 µM; on XIAP BIR1/2 (Table B-1) it was > 50 µM.

`CN[C@@H](C)C(=O)N[C@H]1CCS[C@H]2CCC(C(=O)N[C@@H]3CCCc4ccccc43)N2C1=O` (stereo partly shown) [Compound 24]: the Ki at ML-IAP (Table B-1) was ≤ 25 µM; on XIAP BIR3 (Table B-1), ≤ 25 µM; at XIAP BIR1/2 (Table B-1) it was > 50 µM.

As to `CCCC(CCC)C(=O)O` [Valproic acid, valproic acid], the “Group: increase of GFP+ cells” value in assay [1] was “A (A 0-25%)”.

For `CC(C)(C)OC(=O)Nc1ccc(-c2cc(C(=O)NCCCCCCC(=O)NO)no2)cc1` [BML-281, Carbamic acid, N-[4-[3-[[[7-(hydroxyamino)-7-oxoheptyl]amino]carbonyl]-5-isoxazolyl]phenyl]-, 1,1-dimethylethyl ester], the “Group: increase of GFP+ cells” value in assay [1] is reported as “B (B 25-50%)”.

Regarding `CN[C@@H](C)C(=O)N[C@H]1CCO[C@H]2c3ccccc3C(C(=O)N[C@@H]3CCCc4ccccc43)N2C1=O` (stereo partly shown) [Compound 27], the Ki at ML-IAP (Table B-1) was ≤ 25 µM; at XIAP BIR3 (Table B-1) it was ≤ 25 µM; at XIAP BIR1/2 (Table B-1), > 50 µM.

Regarding `CC[C@H](NC(=O)[C@H](C)NC)C(=O)N1C[C@@H](O)C[C@H]1Cc1c(-c2[nH]c3cc(F)ccc3c2C[C@@H]2C[C@H](O)CN2C(=O)[C@H](CC)NC(=O)[C@H](C)NC)[nH]c2cc(F)ccc12` [TL32711], the “Reactivation of latent HIV (GFP reporter expression)” value in assay [2] is recorded as “Reactivation of latent HIV in JLat 10.6 cells was achieved”.

As to `CC(/C=C/C(=O)NO)=C\[C@@H](C)C(=O)c1ccc(N(C)C)cc1` [Trichostatin A], the “Group: increase of GFP+ cells” value in assay [1] is given as “C (C 50-75%)”.

Consider `CN(C)c1ccc(C(=O)NCCCCCCC(=O)NO)cc1` [Compound M344, Benzamide, 4-(dimethylamino)-N-[7-(hydroxyamino)-7-oxoheptyl]-], for which the “Group: increase of GFP+ cells” value in assay [1] is given as “C (C 50-75%)”.

For `CN[C@@H](C)C(=O)N[C@H]1CCS(=O)(=O)[C@H]2CC[C@H](C(=O)N[C@@H]3CCCc4ccccc43)N2C1=O` [Compound 38], the Ki on XIAP BIR3 (Table B-1) was 25 to 50 µM; at XIAP BIR1/2 (Table B-1), > 50 µM.

With `CN[C@@H](C)C(=O)N[C@H]1CC(=O)N[C@H]2CC(C)(C)C(C(=O)N[C@@H]3CCCc4ccccc43)N2C1=O` (stereo partly shown) [Compound 46], the Ki is ≤ 25 µM on ML-IAP (Table B-1), ≤ 25 µM at XIAP BIR3 (Table B-1) and > 50 µM at XIAP BIR1/2 (Table B-1).

As to `O=Nc1ccc(O)c2ncccc12` [NSC-3852, 8-Quinolinol, 5-nitroso-], the “Group: increase of GFP+ cells” value in assay [1] is given as “B (B 25-50%)”.

For the compound `CN[C@@H](C)C(=O)N[C@H]1CCS[C@H]2CC[C@H](C(=O)N[C@@H]3CCCc4ccccc43)N2C1=O` [Compound 36], the Ki was ≤ 25 µM at ML-IAP (Table B-1), ≤ 25 µM at XIAP BIR3 (Table B-1) and > 50 µM on XIAP BIR1/2 (Table B-1).

Take `CN[C@@H](C)C(=O)N[C@H]1CCO[C@H]2CC(C)(C)[C@@H](C(=O)N[C@@H]3CCCc4ccccc43)N2C1=O` [Compound 26]: the Ki on ML-IAP (Table B-1), at XIAP BIR3 (Table B-1) and at XIAP BIR1/2 (Table B-1) was ≤ 25 µM throughout.

For `CN[C@@H](C)C(=O)N[C@H]1CCO[C@H]2CC3(CC=CC3)C(C(=O)N[C@@H]3CCCc4ccccc43)N2C1=O` (stereo partly shown) [Compound 42], the Ki on ML-IAP (Table B-1), at XIAP BIR3 (Table B-1) and on XIAP BIR1/2 (Table B-1) was ≤ 25 µM throughout.

`CN[C@@H](C)C(=O)N[C@H]1CO[C@H]2CCC(C(=O)NC3CCCc4ccccc43)N2C1=O` (stereo partly shown) [Compound 9]: the Ki is ≤ 25 µM at XIAP BIR3 (Table B-1) and > 50 µM on XIAP BIR1/2 (Table B-1).

Consider `CC(C)C(=O)SCCCCCCC(=O)Nc1nc(-c2ccccc2)cs1` [NCH-51, Propanethioic acid, 2-methyl-, S-[7-oxo-7-[(4-phenyl-2-thiazolyl)amino]heptyl] ester], for which the “Group: increase of GFP+ cells” value in assay [1] is listed as “A (A 0-25%)”.

As to `CN[C@@H](C)C(=O)N[C@H]1CCO[C@H]2CC[C@@H](C(=O)N[C@@H]3CCCc4ccccc43)N2C1=O` [Compound 33], the Ki is ≤ 25 µM on ML-IAP (Table B-1), ≤ 25 µM on XIAP BIR3 (Table B-1) and > 50 µM on XIAP BIR1/2 (Table B-1).

On to Oxamflatin, for which the “Group: increase of GFP+ cells” value in assay [1] is listed as “C (C 50-75%)”.

As for `CN[C@@H](C)C(=O)N[C@H]1CCCN(C(C)=O)C2CCC(C(=O)NC3CCCc4ccccc43)N2C1=O` (stereo partly shown) [Compound 20], the values for the Ki on XIAP BIR3 (Table B-1) and at XIAP BIR1/2 (Table B-1) were ≤ 25 µM and > 50 µM, respectively.

Take `CCC(=O)CCCCC[C@@H]1NC(=O)[C@H]2CCCCN2C(=O)[C@H]([C@@H](C)CC)NC(=O)[C@H](Cc2cn(OC)c3ccccc23)NC1=O` [Apicidin]: in assay [1], the “Group: increase of GFP+ cells” value was “C (C 50-75%)”.

With `O=C(CCCCCCC(=O)Nc1ccc(F)cc1)NO` [p-Fluoro-SAHA], in assay [1], the “Group: increase of GFP+ cells” value is reported as “A (A 0-25%)”.

On to `CN[C@@H](C)C(=O)N[C@H]1CCO[C@H]2c3ccccc3C(C(=O)N[C@@H]3CCCc4ccccc43)N2C1=O` (stereo partly shown) [Compound 17a], for which the Ki was ≤ 25 µM on ML-IAP (Table 2-2), ≤ 25 µM at XIAP BIR3 (Table 2-2) and > 50 µM at XIAP BIR1/2 (Table 2-2).

`CN[C@@H](C)C(=O)N[C@H]1CCCNC2CCC(C(=O)Nc3cccc4ccccc34)N2C1=O` (stereo partly shown) [Compound 17]: the Ki at XIAP BIR3 (Table B-1) and at XIAP BIR1/2 (Table B-1) was ≤ 25 µM in each case.

With `CN[C@@H](C)C(=O)N[C@H]1Cc2ccc(O)cc2[C@H]2CC(C)(C)C(C(=O)N[C@@H]3CCCc4ccccc43)N2C1=O` (stereo partly shown) [Compound 45], the Ki on XIAP BIR3 (Table B-1) and on XIAP BIR1/2 (Table B-1) was ≤ 25 µM in each case.

As for `CN[C@@H](C)C(=O)N[C@H]1CCO[C@H]2CCC(C(=O)n3ccc4ccccc43)N2C1=O` (stereo partly shown) [Compound 22], the Ki was 25 to 50 µM at XIAP BIR3 (Table B-1) and > 50 µM at XIAP BIR1/2 (Table B-1).

For `CN[C@@H](C)C(=O)N[C@H]1CCO[C@H]2CC[C@H](C(=O)N[C@@H]3CCOc4ccccc43)N2C1=O` [Compound 39], the figures for the Ki at XIAP BIR3 (Table B-1) and at XIAP BIR1/2 (Table B-1) were 25 to 50 µM and > 50 µM, respectively.

`CN[C@@H](C)C(=O)N[C@H]1CCS(=O)(=O)[C@H]2CC[C@@H](C(=O)N[C@@H]3CCCc4ccccc43)N2C1=O` [Compound 37]: the values for the Ki at XIAP BIR3 (Table B-1) and at XIAP BIR1/2 (Table B-1) were ≤ 25 µM and > 50 µM, respectively.

With `CN[C@@H](C)C(=O)N[C@H]1CCO[C@H]2CCC(C(=O)N[C@@H]3CCCc4ccccc43)N2C1=O` (stereo partly shown) [Compound 12], the Ki on ML-IAP (Table B-1) was ≤ 25 µM; at XIAP BIR3 (Table B-1) it was ≤ 25 µM; at XIAP BIR1/2 (Table B-1) it was > 50 µM.

In the case of `CN[C@@H](C)C(=O)N[C@H]1CCO[C@H]2CC(C)(C)C(C(=O)Nc3ccccc3SSc3ccccc3NC(=O)C3N4C(=O)[C@@H](NC(=O)[C@H](C)NC)CCO[C@H]4CC3(C)C)N2C1=O` (stereo partly shown) [Compound 40], the Ki on XIAP BIR3 (Table B-1) and on XIAP BIR1/2 (Table B-1) was ≤ 25 µM throughout.

Regarding `CC(CC1OCCN(Cc2nc(=O)[nH][nH]2)C1c1ccc(F)cc1)c1cc(C(F)(F)F)cc(C(F)(F)F)c1` (stereo not shown) [NKL 22, 3H-1,2,4-Triazol-3-one, 5-[[2-[2-[3,5-bis(trifluoromethyl)phenyl]propyl]-3-(4-fluorophenyl)-4-morpholinyl]methyl]-1,2-dihydro-], the “Group: increase of GFP+ cells” value in assay [1] is on record as “A (A 0-25%)”.

With `O=C(CCCCCN1C(=O)c2cccc3cccc(c23)C1=O)NO` [Scriptaid], the “Group: increase of GFP+ cells” value in assay [1] was “C (C 50-75%)”.

`CN[C@@H](C)C(=O)N[C@H]1CCS[C@H]2CC[C@@H](C(=O)N[C@@H]3CCCc4ccccc43)N2C1=O` [Compound 34]: the figures for the Ki at ML-IAP (Table B-1), on XIAP BIR3 (Table B-1) and at XIAP BIR1/2 (Table B-1) were ≤ 25 µM, ≤ 25 µM and > 50 µM, respectively.

As to `CN[C@@H](C)C(=O)N[C@H]1CCS[C@H]2CC(C)(C)C(C(=O)N[C@@H]3CCCc4ccccc43)N2C1=O` (stereo partly shown) [Compound 17c], the Ki on ML-IAP (Table 2-2) and at XIAP BIR3 (Table 2-2) was ≤ 25 µM each time.
